Reference: ChEMBL document CHEMBL5126547, “Inhibition of the drug efflux activity of Ptch1 as a promising strategy to overcome chemotherapy resistance in cancer cells” (Eur J Med Chem, 2022)

Columns and labels:
[1] = target: T1, Protein patched homolog 1 (Homo sapiens) (UniProt Q13635); assay: Inhibition of Ptch1 in human adrenocortical carcinoma cells assessed as fold increase doxorubicin cytotoxicity; type: cell-based; conditions: Adrenocortical carcinoma cell
T1 sequence (whole entry): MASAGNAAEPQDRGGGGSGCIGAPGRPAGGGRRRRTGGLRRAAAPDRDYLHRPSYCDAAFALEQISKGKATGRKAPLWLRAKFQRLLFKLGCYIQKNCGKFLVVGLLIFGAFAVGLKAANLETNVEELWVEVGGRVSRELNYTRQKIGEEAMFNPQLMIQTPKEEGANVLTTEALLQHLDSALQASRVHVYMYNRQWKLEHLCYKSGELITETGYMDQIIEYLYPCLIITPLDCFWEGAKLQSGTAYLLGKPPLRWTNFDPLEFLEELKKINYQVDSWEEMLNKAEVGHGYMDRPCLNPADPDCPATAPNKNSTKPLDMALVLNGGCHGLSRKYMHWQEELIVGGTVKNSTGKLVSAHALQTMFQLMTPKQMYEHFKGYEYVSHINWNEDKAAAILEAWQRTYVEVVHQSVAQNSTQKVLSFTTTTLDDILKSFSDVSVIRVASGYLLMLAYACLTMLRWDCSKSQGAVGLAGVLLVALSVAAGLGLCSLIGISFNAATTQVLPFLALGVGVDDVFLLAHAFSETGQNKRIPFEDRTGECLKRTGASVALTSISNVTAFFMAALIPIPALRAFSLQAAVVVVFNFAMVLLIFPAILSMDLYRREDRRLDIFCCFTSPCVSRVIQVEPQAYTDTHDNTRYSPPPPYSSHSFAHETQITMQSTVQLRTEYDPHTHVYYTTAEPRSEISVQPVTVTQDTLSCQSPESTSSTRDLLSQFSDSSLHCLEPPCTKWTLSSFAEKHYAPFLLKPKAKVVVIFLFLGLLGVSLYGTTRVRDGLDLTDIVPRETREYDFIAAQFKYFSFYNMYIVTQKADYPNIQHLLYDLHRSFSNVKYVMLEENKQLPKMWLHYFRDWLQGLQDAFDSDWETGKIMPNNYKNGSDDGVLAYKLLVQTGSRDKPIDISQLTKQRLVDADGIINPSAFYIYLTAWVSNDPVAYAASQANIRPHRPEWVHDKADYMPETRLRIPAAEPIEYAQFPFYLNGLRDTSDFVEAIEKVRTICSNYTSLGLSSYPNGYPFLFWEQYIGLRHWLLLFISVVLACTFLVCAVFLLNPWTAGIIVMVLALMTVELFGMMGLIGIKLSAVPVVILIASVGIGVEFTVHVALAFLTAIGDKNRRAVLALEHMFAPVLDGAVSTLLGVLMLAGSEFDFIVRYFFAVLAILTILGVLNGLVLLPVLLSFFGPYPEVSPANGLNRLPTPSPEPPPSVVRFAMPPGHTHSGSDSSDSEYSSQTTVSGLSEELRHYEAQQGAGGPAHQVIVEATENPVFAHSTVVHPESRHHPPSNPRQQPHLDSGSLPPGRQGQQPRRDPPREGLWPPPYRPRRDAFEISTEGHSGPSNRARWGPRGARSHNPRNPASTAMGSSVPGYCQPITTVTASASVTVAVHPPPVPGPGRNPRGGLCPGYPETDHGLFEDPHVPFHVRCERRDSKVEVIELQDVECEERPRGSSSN

[2] = Metabolic stability in rat liver microsomes assessed as half life; type: ADME, Microsome
[3] = Lipophilicity, logD of compound; type: physicochemical; conditions: octanol/water
[4] = target: T1, Protein patched homolog 1 (Homo sapiens); assay: Inhibition of Ptch1 in human Melanoma cells assessed as fold increase doxorubicin cytotoxicity; type: cell-based; conditions: Melanoma cell
[5] = target: T1, Protein patched homolog 1 (Homo sapiens); assay: Inhibition of Ptch1 in human Melanoma cells assessed as fold increase cisplatin cytotoxicity; type: cell-based; conditions: Melanoma cell
[6] = target: T1, Protein patched homolog 1 (Homo sapiens); assay: Inhibition of Ptch1 in human Melanoma cells assessed as fold increase vemurafenib cytotoxicity; type: cell-based; conditions: Melanoma cell
[7] = In vivo inhibition of Ptch1 in vemurafenib-resistant human A-375 BRAF V600E cells xenografted in Nu/Nu NMRI mouse assessed as fold increase in vemurafenib anticancer activity at 5 mg/kg, ip administered 5 days a week measured on after 23 days of first treatment relative to control; type: functional; conditions: time 5 day
[8] = Inhibition of Ptch1 in vemurafenib-resistant human A-375 BRAF V600E cells assessed as fold increase in cisplatin cytotoxicity
[9] = Inhibition of Ptch1 in vemurafenib-resistant human A-375 BRAF V600E cells assessed as fold increase in doxorubicin cytotoxicity

half-life [2] [min]	logD [3]	Structure (SMILES)	fold change (FC) [1]	fold change (FC) [4]	fold change (FC) [5]	fold change (FC) [6]	fold change (FC) [7]	fold change (FC) [8]	fold change (FC) [9]
> 60	2.9	COc1ccc(CCN2CCC(Nc3nc4ccccc4n3Cc3ccc(F)cc3)CC2)cc1 [ASTEMIZOLE]	10						
31	3.5	CSc1ccc2c(c1)C(N1CCN(C)CC1)Cc1ccccc1S2 (stereo unspecified) [METITEPINE]	6.6	5.8	3	4	10	3.6	15
1		COc1cc(C)c(CC/C(C)=C/Cc2cc(O)ccc2O)c(C)c1C [PANICEIN A HYDROQUINONE]	128				10		68
